Data on 34 compounds can be found in patent US10464896B2, “Efflux-pump inhibitors and therapeutic uses thereof” (Basilea Pharmaceutica International AG, priority 2015, dated 2019).

Common to all, as to type: cell-based
For test [1], the system named is E. coli ATCC25922. As to the kind of experiment: Antibacterial activity in combination with linezolid (growth inhibition). The following applies: Escherichia coli, ATCC25922, compound at 50 μM; linezolid 128 μg/mL; OD625 23 h minus 1 h; read-out: residual growth of E. coli ATCC25922 (% of uninhibited control) with linezolid. As for the experimental part: (§1) Antibacterial activity in combination with minocycline or with linezolid
(§2) Inhibition of growth was measured with E. coli ATCC25922 and P. aeruginosa PAO1 in a 96-well plate format. Cation-adjusted Müller-Hinton broth (caMHB) was inoculated with an overnight culture and incubated at 37° C. on a shaker until OD625 reached 0.6 to 0.7. Density was adjusted to OD600=0.5 by addition of caMHB. 35 μL of the suspension were diluted to 35 mL with caMHB and supplemented with minocycline at the subinhibitory doses of 0.25 μg/mL for E. coli and 8 μg/mL for P. aeruginosa or with linezolid at the subinhibitory dose of 128 μg/mL for E. coli and P. aeruginosa. Each well contained 1 μL of test compound in 100 μL caMHB with minocycline or with linezolid.
(§3) Plates were incubated at 37° C. on a plate shaker. OD625 was measured at 1 h, 6 h, and at 23 h.
(§4) The difference between OD at 23 h and at 1 h was taken as measure for cell density and compared to controls without inhibitor (i.e. uninhibited control). Results were expressed as residual growth (% of uninhibited control). Enhancement of minocycline or linezolid activity caused reduced residual growth.

The test system of test [2] is P. aeruginosa PAO1. The experiment in a line: Antibacterial activity in combination with minocycline (growth inhibition). The following applies: Pseudomonas aeruginosa, PAO1, compound at 50 μM; minocycline 8 μg/mL; OD625 23 h minus 1 h; read-out: residual growth of P. aeruginosa PAO1 (% of uninhibited control) with minocycline. An outline of the steps: (§5)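 Test compound combined with fixed subinhibitory partner antibiotic: linezolid 128 μg/mL for either strain, minocycline 0.25 μg/mL (E. coli) or 8 μg/mL (P. aeruginosa), in caMHB shaken at 37 °C. Residual growth as % of inhibitor-free control, from OD625 at 23 h minus 1 h.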

Test [3] deals with P. aeruginosa PAO1. The experiment in a line: Antibacterial activity in combination with linezolid (growth inhibition). The following applies: Pseudomonas aeruginosa, PAO1, compound at 50 μM; linezolid 128 μg/mL; OD625 23 h minus 1 h; read-out: residual growth of P. aeruginosa PAO1 (% of uninhibited control) with linezolid. As for the experimental part:
as §1, §2, §3, §4

Test [4] has as its system E. coli ATCC25922. The experiment in a line: Antibacterial activity in combination with minocycline (growth inhibition). To be noted: Escherichia coli, ATCC25922, compound at 25 μM; minocycline 0.25 μg/mL; OD625 23 h minus 1 h; read-out: residual growth of E. coli ATCC25922 (% of uninhibited control) with minocycline. An outline of the steps:
as §5

In the case of `Clc1ccccc1COc1ccc(CNCC2CCNCC2)cc1` [Example 1], the activity at 50 µM in the test on E. coli ATCC25922 [1] and in the test with P. aeruginosa PAO1 [2] was at most 50% throughout.
In the case of `Clc1ccc(COc2ccc(CNCC3CNC3)cc2)c(Br)c1` [Example 36], the activity at 50 µM with P. aeruginosa PAO1 [3] was at most 50%. In addition, the activity at 25 µM in the test on E. coli ATCC25922 [4] is at most 10%.
The matching figures for `Clc1ccc(COc2ccc(CNCC3CCNC3)cc2)c(Br)c1` (stereo not drawn) [Example 63]: at most 50% and at most 10%.
`Clc1ccc(COc2ccc(CCNCC3CNC3)cc2)c(Br)c1` [Example 100]: in the test on E. coli ATCC25922 [1], the activity at 50 µM is at most 50%. In addition, the activity at 25 µM in the test on E. coli ATCC25922 [4] was at most 10%.
Turning to `O=C(Nc1ccc(CNCC2CCNC2)cc1Cl)c1ccc(C(F)(F)F)cc1C(F)(F)F` (stereo not drawn) [Example 160], the activity at 50 µM with E. coli ATCC25922 [1] is at most 50%.
On to `O=C(Nc1ccc(CNCC2CNC2)cc1Cl)c1ccc(Cl)cc1C(F)(F)F` [Example 161], for which, in the test on E. coli ATCC25922 [1], the activity at 50 µM was at most 50%.
With `Clc1ccc(COc2cc(CNCC3CNC3)cc(OCC3CC3)c2)c(Cl)c1` [Example 166], the activity at 50 µM in the test with P. aeruginosa PAO1 [3] was at most 50%. The activity at 25 µM in the test with E. coli ATCC25922 [4] was at most 10%.
Take `CC(C)Oc1cc(C[N+](C)(C)CC2CCNC2)cc(OCc2ccc(Cl)cc2Br)c1` (stereo not drawn) [Example 167]: in the test with P. aeruginosa PAO1 [3], the activity at 50 µM was at most 50%. The activity at 25 µM in the test with E. coli ATCC25922 [4] was at most 10%.
As to `NCC1CCC(CNCc2cccc(OCc3ccc(Cl)cc3Br)c2)N1` (stereo not drawn) [Example 192], the activity at 50 µM with P. aeruginosa PAO1 [3] and in the test on P. aeruginosa PAO1 [2] was at most 50% throughout. Besides, the activity at 25 µM in the test with E. coli ATCC25922 [4] is at most 10%.
With `C[N+](C)(CC(=O)O)Cc1cc(CNCC2CNC2)cc(OCc2ccc(Cl)cc2Br)c1` [Example 232], the activity at 50 µM with E. coli ATCC25922 [1] was at most 50%.
Regarding `CN(CC(=O)O)Cc1cc(CNCC2CNC2)cc(OCc2ccc(Cl)cc2Br)c1` [Example 244], in the test with E. coli ATCC25922 [1], the activity at 50 µM was at most 50%.
On to `Clc1ccc(COc2cc(CNCC3CCNC3)cc(OCCc3c[nH]cn3)c2)c(Br)c1` (stereo not drawn) [Example 251], for which the activity at 50 µM with P. aeruginosa PAO1 [3] is at most 50%. Also, in the test on E. coli ATCC25922 [4], the activity at 25 µM is at most 10%.
Regarding `CC(C)(C)c1ccc(COc2cc(CNCC3CNC3)cc(C(F)(F)F)c2)cc1` [Example 273], in the test on P. aeruginosa PAO1 [3], the activity at 50 µM was at most 50%. Also, the activity at 25 µM in the test with E. coli ATCC25922 [4] is at most 10%.
As for `C=CCOc1cc(/C=C/c2cccc(C#N)c2)cc(CNCC2CCNC2)c1` (stereo not drawn) [Example 305], in the test on P. aeruginosa PAO1 [3], the activity at 50 µM was at most 50%. Also, the activity at 25 µM with E. coli ATCC25922 [4] is at most 10%.
Turning to `CC(C)COc1cc(/C=C/c2cccnc2)cc(CNCC2CCNC2)c1` (stereo not drawn) [Example 332], the activity at 50 µM with P. aeruginosa PAO1 [3] and in the test on P. aeruginosa PAO1 [2] was at most 50% in each case. In the test with E. coli ATCC25922 [4], the activity at 25 µM is at most 10%.
Regarding `CC(C)COc1cc(/C=C/c2ccc(C(N)=O)cc2)cc(CNCC2CCNC2)c1` (stereo not drawn) [Example 337], the activity at 50 µM in the test on P. aeruginosa PAO1 [3] was at most 50%. Further, the activity at 25 µM in the test with E. coli ATCC25922 [4] was at most 10%.
The matching figures for `C[N+](C)(Cc1cc(OCCc2c[nH]cn2)cc(OCc2ccc(Cl)cc2Br)c1)CC1CNC1` [Example 389]: at most 50% and at most 10%.
As to `C[N+](C)(Cc1cc(OCCc2c[nH]cn2)cc(OCc2ccc(Cl)cc2Br)c1)CC1CCNC1` (stereo not drawn) [Example 404], the activity at 50 µM in the test on P. aeruginosa PAO1 [3] is at most 50%. Moreover, in the test on E. coli ATCC25922 [4], the activity at 25 µM is at most 10%.
As to `c1cncc(COc2cc(CNCC3CCNC3)cc(OCCc3ccncc3)c2)c1` (stereo not drawn) [Example 427], the activity at 50 µM in the test with E. coli ATCC25922 [1] is at most 50%.
Still for that read-out and setting: with `c1cncc(COc2cc(CNCC3CNC3)cc(OCCN3CCOCC3)c2)c1` [Example 428] the figure was at most 50%.
Consider `CC(C)COc1ccc(/C=C/c2ccc(Cl)cc2Br)cc1CNCC1CNC1` [Example 432], for which the activity at 50 µM with P. aeruginosa PAO1 [3] is at most 50%. Moreover, in the test with E. coli ATCC25922 [4], the activity at 25 µM is at most 10%.
On to `C(=C\c1cc(CNCC2CNC2)cc(OCCN2CCOCC2)c1)/c1cccnc1` [Example 442], for which, in the test on E. coli ATCC25922 [1], the activity at 50 µM is at most 50%.
Regarding `C=CCOc1cc(/C=C/c2ccc(Cl)cc2Br)cc(C(=O)NCCN(CC2CNC2)CC2CNC2)c1` [Example 447], the activity at 50 µM in the test with E. coli ATCC25922 [1] is at most 50%. Moreover, the activity at 25 µM in the test with E. coli ATCC25922 [4] was at most 10%.
Consider `C=CCOc1cc(/C=C/c2cncc(C(=O)O)c2)cc(CNCC2CCNC2)c1` (stereo not drawn) [Example 449], for which, in the test with E. coli ATCC25922 [1], the activity at 50 µM is at most 50%.
`C=CCOc1cc(/C=C/c2ccc(Cl)cc2Br)cc(C(=O)NCCNC(=O)C2CNC2)c1` [Example 454]: in the test on P. aeruginosa PAO1 [3], the activity at 50 µM is at most 50%. For the same compound, the activity at 25 µM in the test with E. coli ATCC25922 [4] is at most 10%.
For the compound `C=CCOc1cc(/C=C/c2cncc(C(=O)N(C)C)c2)cc(CNCC2CCNC2)c1` (stereo not drawn) [Example 467], the activity at 50 µM in the test on P. aeruginosa PAO1 [3] and in the test on P. aeruginosa PAO1 [2] was at most 50% throughout.
Regarding `N#Cc1cncc(/C=C/c2cc(OCc3ccccn3)cc(CNCC3CCNC3)n2)c1` (stereo not drawn) [Example 482], in the test with E. coli ATCC25922 [1], the activity at 50 µM was at most 50%.
On to `N#Cc1cncc(/C=C/c2cc(CNCC3CCNC3)cc(OCCN3CCOCC3)c2)c1` (stereo not drawn) [Example 484, 5-[(E)-2-[3-(2-morpholinoethoxy)-5-[(pyrrolidin-3-ylmethylamino)methyl]phenyl]vinyl]pyridine-3-carbonitrile], for which, in the test on E. coli ATCC25922 [1], the activity at 50 µM was at most 50%.
Still for that read-out and setting: with `N#Cc1cncc(/C=C/c2cc(CNCC3CCNC3)cc(OCc3n[nH]c(=O)o3)c2)c1` (stereo not drawn) [Example 491, 5-[(E)-2-[3-[(2-oxo-3H-1,3,4-oxadiazol-5-yl)methoxy]-5-[(pyrrolidin-3-ylmethylamino)methyl]phenyl]vinyl]pyridine-3-carbonitrile] the figure was at most 50%.
As to `Oc1ncc(/C=C/c2ccc(Cl)cc2Br)cc1CNCC1CCNC1` (stereo not drawn) [Example 494, 5-[(E)-2-(2-bromo-4-chloro-phenyl)vinyl]-3-[(pyrrolidin-3-ylmethylamino)methyl]pyridin-2-ol], the activity at 50 µM with P. aeruginosa PAO1 [3] is at most 50%. Also, the activity at 25 µM with E. coli ATCC25922 [4] is at most 10%.
Take `CC(C)COc1cc(CNCC2CCNC2)cc(S(=O)(=O)Cc2cccnc2)c1` (stereo not drawn) [Example 495]: the activity at 50 µM with E. coli ATCC25922 [1] is at most 50%.
Regarding `CC(C)COc1cc(/C=C/c2cccnc2)cc(C(=O)CNCC2CCNC2)c1` (stereo not drawn) [Example 502, 1-[3-isobutoxy-5-[(E)-2-(3-pyridyl)vinyl]phenyl]-2-(pyrrolidin-3-ylmethylamino)ethanone], the activity at 50 µM with E. coli ATCC25922 [1] and in the test on P. aeruginosa PAO1 [2] was at most 50% each time.
Consider `O=C(NCCN(CC1CNC1)CC1CNC1)c1cc(OCCc2ccncc2)cc(OCc2cccnc2)c1` [Example 506, N-[2-[bis(azetidin-3-ylmethyl)amino]ethyl]-3-[2-(4-pyridyl)ethoxy]-5-(3-pyridylmethoxy)benzamide], for which the activity at 50 µM with E. coli ATCC25922 [1] is at most 50%.
As to `O=C(NCCN(CC1CNC1)CC1CNC1)c1cc(CNC(=O)c2cccnc2)cc(OCCc2ccncc2)c1` [Example 507, N-[[3-[2-[bis(azetidin-3-ylmethyl)amino]ethylcarbamoyl]-5-[2-(4-pyridyl)ethoxyl]phenyl]methyl]pyridine-3-carboxamide], the activity at 50 µM in the test on E. coli ATCC25922 [1] and in the test on P. aeruginosa PAO1 [2] was at most 50% each time.
